Structures can show the parent of a compound that is named as a salt.
What was measured:
[1] = biological target: T1, Caspase 9 (Homo sapiens, UniProt P55211); assay: Caspase 9 cleavage of Ac-LEHD-AFC in buffers containing Hofmeister salts; format: biochemical
T1 construct: purchased
T1 sequence (P55211 1-315 limits assumed): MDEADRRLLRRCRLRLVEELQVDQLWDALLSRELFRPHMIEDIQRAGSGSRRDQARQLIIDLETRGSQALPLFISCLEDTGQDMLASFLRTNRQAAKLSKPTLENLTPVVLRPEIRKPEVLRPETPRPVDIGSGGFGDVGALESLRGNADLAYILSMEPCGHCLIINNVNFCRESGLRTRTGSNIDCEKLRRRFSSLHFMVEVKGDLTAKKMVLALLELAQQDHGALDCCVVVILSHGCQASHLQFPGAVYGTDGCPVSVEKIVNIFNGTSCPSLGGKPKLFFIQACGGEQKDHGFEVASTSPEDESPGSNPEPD
T1 sequence (P55211 331-416 limits assumed): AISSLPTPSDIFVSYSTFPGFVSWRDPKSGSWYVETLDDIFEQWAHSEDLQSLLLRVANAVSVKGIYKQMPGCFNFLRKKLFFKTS

[2] = biological target: Herpes simplex virus 1 protease (Human herpesvirus 1, UniProt P10210); details: 1M Na citrate; cited from earlier work
[3] = biological target: T2, Caspase 1 (Homo sapiens, UniProt P29466); assay: Caspase 1 activity in ammonium sulfate at various concentrations
T2 sequence (P29466 120-297 limits assumed): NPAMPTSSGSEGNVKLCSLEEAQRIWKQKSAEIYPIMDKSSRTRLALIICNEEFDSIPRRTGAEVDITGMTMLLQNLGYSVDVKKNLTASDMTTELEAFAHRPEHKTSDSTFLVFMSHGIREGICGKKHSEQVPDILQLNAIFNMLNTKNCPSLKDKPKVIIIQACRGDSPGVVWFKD
T2 sequence (P29466 317-404 limits assumed): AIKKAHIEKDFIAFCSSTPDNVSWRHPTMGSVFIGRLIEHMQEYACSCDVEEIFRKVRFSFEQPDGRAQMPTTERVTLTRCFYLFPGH
Experimental: (§1) The control buffer used to carry out specificity reactions is as follows: 20 mM PIPES pH 7.2, 1 mM EDTA, 0.1% CHAPS, 10% sucrose, 10 mM DTT. Various N-acetyl-tetrapeptide-7-amino-trifluoromethylcoumarin substrates at 100 uM were assayed with the different commercially available caspases. 2.5 mM stock substrate concentrations were prepared in DMSO and subsequently diluted to 200 uM with control buffer.
(§2) 300 U stock solutions of the enzymes in interest were prepared in the control buffer listed above. The assay was carried out as follows: 96 well black Dynex microfluorometer 1 plate was used. Total Assay volume was 100 ul. 7-amino-trifluoromethyl coumarin (AFC) was excited at 400 nm, and fluorescence emission was monitored at 505 nm kinetically for the duration of 1 hour (h) wherein AFC was cleaved from the peptide.
(§3) 50 ul of 200 uM stock substrate was added first (final assay concentration 100 uM). 40 ul of the control buffer was then added. The assay was initiated with the addition of 10 ul of the appropriate 300 U caspase stock (30 U in final assay). A linear rate (relative fluorescence U/s) was calculated from the entire duration of the experiment and graphed for each enzyme verses the various substrates tested.
(§4) The substrates in ammonium sulfate using Caspase 9 was 25 uM Ac-LEHD-Afc (SEQ ID NO: 5) and for Caspase 3 was 25 uM Ac-DEVD-Afc (SEQ ID NO: 1).

[4] = biological target: T3, Caspase 3 (Homo sapiens, UniProt P42574); assay: Caspase 3 cleavage of Ac-DEVD-Afc in ammonium sulfate at various concentrations; details: 25 uM Ac-DEVD-Afc
T3 sequence (P42574 29-175 limits assumed): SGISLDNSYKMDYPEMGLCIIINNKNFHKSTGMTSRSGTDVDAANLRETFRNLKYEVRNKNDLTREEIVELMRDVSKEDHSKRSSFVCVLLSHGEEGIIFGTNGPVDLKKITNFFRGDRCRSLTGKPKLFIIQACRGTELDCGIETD
T3 sequence (P42574 176-277 limits assumed): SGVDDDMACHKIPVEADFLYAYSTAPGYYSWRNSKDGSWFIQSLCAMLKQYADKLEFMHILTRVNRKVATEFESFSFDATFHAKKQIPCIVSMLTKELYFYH
Experimental: as §1, §2, §3, §4

[5] = biological target: T4, Caspase 7 (Homo sapiens, UniProt P55210); assay: Caspase 7 activity in ammonium sulfate at various concentrations
T4 sequence (P55210 24-198 limits assumed): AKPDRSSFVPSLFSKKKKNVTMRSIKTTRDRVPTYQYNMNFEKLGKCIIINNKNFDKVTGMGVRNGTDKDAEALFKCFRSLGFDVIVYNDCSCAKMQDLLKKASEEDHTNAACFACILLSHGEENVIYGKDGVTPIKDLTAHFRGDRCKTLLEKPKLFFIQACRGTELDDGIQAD
T4 sequence (P55210 207-303 limits assumed): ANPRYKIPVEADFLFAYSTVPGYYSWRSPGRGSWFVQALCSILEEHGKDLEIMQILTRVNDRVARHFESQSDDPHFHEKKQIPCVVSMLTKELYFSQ
Experimental: as §1, §2, §3, §4

Herpes simplex virus 1 protease, sequence (P10210 1-247): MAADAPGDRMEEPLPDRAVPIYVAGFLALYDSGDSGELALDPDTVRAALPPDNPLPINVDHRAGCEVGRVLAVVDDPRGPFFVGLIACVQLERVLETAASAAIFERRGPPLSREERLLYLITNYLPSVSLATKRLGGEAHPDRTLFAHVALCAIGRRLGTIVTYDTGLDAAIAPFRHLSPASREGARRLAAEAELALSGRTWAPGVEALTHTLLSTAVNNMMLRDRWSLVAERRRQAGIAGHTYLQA

SMILES: O=C(O)CC(O)(CC(=O)O)C(=O)O [citrate, Na citrate]
- activity of Caspase 9 relative to activity in 0.8 M bromide ([1]; 0.8 M salt in control buffer pH 7.2, 100 uM N-Ac-LEHD-Afc, 30 U Caspase 9/well (0.72 uM)): 10,000 fold
- increase in activity of Herpes simplex virus 1 protease [2]: 860 fold

SMILES: O=P(O)(O)O [sodium phosphate]
- Caspase 9 activity increase ([1]; phosphate concentrations from 0 to 1 M, 100 uM Ac-LEHD-Afc): 2200 fold

SMILES: N.N.O=S(=O)(O)O [ammonium sulfate]
- effect of salt on Caspase 1 activity [3]: no effect
- Caspase 9 activity increase ([1]; sulfate concentrations from 0 to 1.6 M, 25 uM Ac-LEHD-Afc): 1400 fold
- effect of salt on Caspase 3 activity [4]: minimal effect
- effect of salt on Caspase 7 activity [5]: no effect

Source: US7452683B2, “Caspase 9 activation and uses therefor” (Wyeth, priority 2002, dated 2008)
